Assay results from the supplement of paper PMC10307832.

Tests used:
Test in all cases: relative viability (nuclei count vs DMSO), 5 days (fraction); higher = more cells survive
[1] = compound: C[C@@]1(C(=O)Nc2ccc(F)nc2)CCCN1c1nc(Nc2cc(C3CC3)n[nH]2)c2cccn2n1 + NC(=O)Nc1cc(-c2cccc(F)c2)sc1C(=O)N[C@H]1CCCNC1 [AZD7762] (partner 0.2 µM)
In short: (§1)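 Lung cancer cell lines in 1536-well plates were dosed by pin tool the day after seeding, either with one drug alone or with a fixed anchor-drug dose plus five library-drug doses (not always all listed) in √10 steps. After 5 days, cells were fixed and their nuclei stained in one step (final 0.05% Triton X-100, 1% formaldehyde, 1 ug/ml Hoechst), then counted on 4× images. Relative viability is the nuclei count in treated wells divided by that in vehicle wells. Values are medians of duplicate plates.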

Motesanib + Pictilisib = compound: CC1(C)CNc2cc(NC(=O)c3cccnc3NCc3ccncc3)ccc21 [Motesanib] + CS(=O)(=O)N1CCN(Cc2cc3nc(-c4cccc5[nH]ncc45)nc(N4CCOCC4)c3s2)CC1 [Pictilisib] (partner 1 µM)
In short: as §1

Motesanib + Decitabine = compound: CC1(C)CNc2cc(NC(=O)c3cccnc3NCc3ccncc3)ccc21 [Motesanib] + Nc1ncn([C@H]2C[C@H](O)[C@@H](CO)O2)c(=O)n1 [Decitabine] (partner 2 µM)
In short: as §1

[2] = compound: C[C@@]1(C(=O)Nc2ccc(F)nc2)CCCN1c1nc(Nc2cc(C3CC3)n[nH]2)c2cccn2n1 + CC(=O)Nc1cccc(-n2c(=O)n(C3CC3)c(=O)c3c(Nc4ccc(I)cc4F)n(C)c(=O)c(C)c32)c1 [Trametinib] (partner 0.02 µM)
In short: as §1

Cell Line	relative viability ([1]; first compound 0.04 µM)	relative viability ([1]; first compound 0.1265 µM)	relative viability ([1]; first compound 0.4 µM)	relative viability ([1]; first compound 1.265 µM)	relative viability (Motesanib + Pictilisib; first compound 0.01 µM)	relative viability (Motesanib + Pictilisib; first compound 0.03162 µM)	relative viability (Motesanib + Pictilisib; first compound 0.1 µM)	relative viability (Motesanib + Pictilisib; first compound 0.3162 µM)	relative viability (Motesanib + Pictilisib; first compound 1 µM)	relative viability (Motesanib + Decitabine; first compound 0.01 µM)	relative viability (Motesanib + Decitabine; first compound 0.03162 µM)	relative viability (Motesanib + Decitabine; first compound 0.1 µM)	relative viability (Motesanib + Decitabine; first compound 0.3162 µM)	relative viability (Motesanib + Decitabine; first compound 1 µM)	relative viability ([2]; first compound 0.04 µM)	relative viability ([2]; first compound 0.1265 µM)	relative viability ([2]; first compound 0.4 µM)	relative viability ([2]; first compound 1.265 µM)
HOP-62	0.812	0.541	0.427	0.547	0.651	0.843	0.507	1.08	1.01	0.179	0.233	0.573	0.608	0.774	0.406	0.303	0.313	0.397
LC-2-ad	0.657	0.586	0.543	0.391	0.449	0.593	0.479	0.568	0.421	0.776	0.758	0.776	0.772	0.753	0.848	0.749	0.648	0.735
LCLC-97TM1	0.284	0.234	0.134	0.128	0.224	0.204	0.15	0.235	0.18	0.251	0.26	0.285	0.261	0.295	0.232	0.0949	0.0995	0.13
LCLC-103H	0.7	0.748	0.6	0.691		0.613	0.542	0.639	0.709	0.774	0.729	0.833	0.815	0.759	0.668	0.613	0.62	0.69
LK-2	0.179	0.203		0.179	0.576	0.513	0.555	0.621	0.537	0.251	0.398	0.28	0.285	0.374	0.426	1.15	0.416	0.495
LOU-NH91	0.683	0.723	0.626	0.642	0.466	0.523	0.563	0.547	0.568	0.829	0.815	0.848	0.838	0.809	0.737	0.845	0.709	0.755
LU99A	0.294	0.243	0.223	0.143	0.348	0.327	0.309	0.386	0.352	0.752	0.916	0.876	0.847	1.01	0.411	0.352	0.399	0.504
LXF-289	1.1	1.03	0.968	1.12	0.776	0.811	0.774	0.806	0.835	0.406	0.427	0.617	0.651	0.688	0.67	0.619	0.645	0.717
NCI-H23	0.238	0.208	0.193	0.114	0.415	0.41		0.562	0.53	0.31	0.382	0.436	0.52	0.523	0.233	0.199	0.178	0.252
NCI-H322M	0.45	0.424	0.492	0.35	0.52	0.544	0.511	0.439	0.538	0.688	0.672	0.707	0.685	0.777	0.435	0.428	0.334	0.347
NCI-H358	0.389	0.392	0.171	0.282	0.303	0.336	0.351	0.435	0.338	0.197	0.261	0.257	0.314	0.276	0.129	0.106	0.112	0.101
NCI-H441	1.07	0.651	0.528	0.856	0.414	0.524	0.518	0.441	0.506	0.271	0.307	0.502	0.514	0.478	0.23	0.164	0.21	0.211
NCI-H460	0.737	0.667	0.609	0.649	0.356	0.424	0.302	0.364	0.493	0.531	0.453	0.467	0.568	0.543	0.159	0.0315	0.0726	0.0967
NCI-H596	1.1	1.07	0.94	1.19	0.391	0.427	0.362	0.384	0.406	1.1	1.08	1.12	1.15	1.16	0.912	0.72	0.654	0.748
NCI-H647	0.402	0.591	0.452	0.32		0.394	0.408	0.333	0.442	0.43	0.441	0.488	0.542	0.535	0.465	0.419	0.383	0.397
NCI-H650	1.16	0.609	0.729	0.828	0.832	0.757	0.875	0.992	0.854	0.31	0.319	0.312	0.382	0.529	0.867	0.572	0.743	0.611
NCI-H727	0.573	0.386	0.443	0.345	0.324	0.369	0.463	0.464	0.379	0.861	0.927	0.929	0.804	0.937	0.312	0.283	0.267	0.221
NCI-H838	0.981	0.918	0.814	0.872	0.496	0.441	0.462	0.449	0.508	0.484	0.49	0.541	0.572	0.582	0.496	0.46	0.346	0.36

Cell Line	relative viability ([1]; first compound 0.04 µM)	relative viability ([1]; first compound 0.1265 µM)	relative viability ([1]; first compound 0.4 µM)	relative viability ([1]; first compound 1.265 µM)	relative viability (Motesanib + Pictilisib; first compound 0.01 µM)	relative viability (Motesanib + Pictilisib; first compound 0.03162 µM)	relative viability (Motesanib + Pictilisib; first compound 0.1 µM)	relative viability (Motesanib + Pictilisib; first compound 0.3162 µM)	relative viability (Motesanib + Pictilisib; first compound 1 µM)	relative viability (Motesanib + Decitabine; first compound 0.01 µM)	relative viability (Motesanib + Decitabine; first compound 0.03162 µM)	relative viability (Motesanib + Decitabine; first compound 0.1 µM)	relative viability (Motesanib + Decitabine; first compound 0.3162 µM)	relative viability (Motesanib + Decitabine; first compound 1 µM)	relative viability ([2]; first compound 0.04 µM)	relative viability ([2]; first compound 0.1265 µM)	relative viability ([2]; first compound 0.4 µM)	relative viability ([2]; first compound 1.265 µM)
NCI-H1355	0.694	0.579	0.539	0.598	0.47	0.475	0.406	0.502	0.485	0.4	0.413	0.395	0.415	0.495	0.36	0.302	0.289	0.346
NCI-H1395	0.395	0.416	0.396	0.364	0.61	0.566	0.609	0.646	0.703	0.765	0.698	0.795	0.739	0.791	1.02	0.863	0.901	0.989
NCI-H1437	1	1.25	0.688	0.745	0.441	0.441	0.467	0.502	0.406	0.596	0.544	0.58	0.548	0.629	0.404	0.3	0.277	0.277
NCI-H1651	0.52	0.371	0.409	0.447	0.607	0.538	0.516	0.562	0.51	0.591	0.751	0.661	0.585	0.731	0.723	0.798	0.712	0.757
NCI-H1666	0.838	0.667	0.642	0.552	0.466	0.5	0.416	0.463	0.49	0.67	0.748	0.885	0.762	0.813	0.826	0.688	0.697	0.755
NCI-H1734	0.54	0.459	0.377	0.446	0.446	0.496	0.461	0.479	0.48	0.51	0.675	0.695	0.613	0.869	0.527	0.512	0.403	0.563
NCI-H1755	0.481	0.424	0.378	0.406	0.395	0.423	0.442	0.454	0.402	0.775	0.838	0.864	0.905	0.913	0.661	0.692	0.734	0.744
NCI-H1792	0.446	0.277	0.332	0.323	0.296	0.231	0.294	0.297	0.309	0.48	0.642	0.594	0.657	0.878	0.343	0.188	0.145	0.211
NCI-H1793	0.463	0.501	0.393	0.456	0.364	0.282	0.301	0.34	0.469	0.561	0.539	0.663	0.755	0.589	0.4	0.355	0.392	0.459
NCI-H1915	0.728	0.731	0.663	0.701	0.933	0.984	0.657	0.994	1.06	0.272	0.262	0.36	0.306	0.383	0.316	0.261	0.272	0.338
NCI-H1944	0.53	0.497	0.419	0.354	0.322	0.342	0.399	0.379	0.364	0.477	0.444	0.495	0.534	0.508	0.352	0.363	0.284	0.384
NCI-H1975	0.64	0.98	0.498	0.532	0.312	0.282	0.313	0.352	0.31	0.364	0.459	0.406	0.487	0.426	0.272	0.273	0.313	0.234
NCI-H1993	0.495	0.496	0.455	0.567	0.676	0.917	0.899	0.767	0.805	0.598	0.568	0.609	0.657	0.659	0.468	0.42	0.534	0.46
NCI-H2085	1.12	0.948	0.927	0.913	0.377	0.447	0.405	0.509	0.468	0.551	0.684	0.702	0.644	0.71	0.929	0.471	0.58	0.636
NCI-H2087	1.26	1.25	1.09	1.23	0.695	0.794	0.705	0.988	0.843			0.343	0.259	0.367	0.158	0.161	0.15	0.138
NCI-H2126	0.993	0.716	0.569	0.648	0.531	0.539	0.476	0.553	0.508	0.608	0.645	0.625	0.698	0.709	0.447	0.346	0.336	0.415
NCI-H2170	0.836	0.864	0.744	0.791	0.278	0.347	0.294	0.331	0.344	0.485	0.509	0.575	0.576	0.604	0.951	0.966	0.894	0.992
NCI-H2347	0.68	0.765	0.731	0.672	0.476	0.803	0.382	0.456	0.678	0.667	0.578	0.701	0.642	0.674	0.251	0.289	0.256	0.248
